From patent US20030181515A1, “Methods of using kavalactone compositions” (Kava Pharmaceuticals, Inc., a Delaware corporation, priority 2001, published 2003) come the findings set out here.

“Also recorded” adds a separate entry of the source.

The test system of this assay is IL-12. The assay can be described thus: IL-12 inhibitory assay in IFNγ-primed, LPS-stimulated human PBMC (ELISA). It counts as cell-based. The settings on record: human PBMC primed with IFNγ, supernatants 20 h later, FIG. 1. The protocol:
This invention is based in part on the unexpected discovery that specific kavalactones inhibit production of IL-12, whose overproduction is implicated in a number of diseases and disease symptoms. The IL-12 inhibitory activity of six major kavalactones (e.g., desmethoxyyangonin, dihydrokawain, dihydromethysticin, kawain, methysticin, and yangonin) was measured using a cellular assay for determination of IL-12 cytokine inhibition. […] Thus, compositions containing one of the three active kavalactones, kawain, dihydrokawain, dihydromethysticin, or a combination thereof, are useful for treating disease or disease symptoms related to IL-12 overproduction.
Referring back to FIG. 1, six kavalactones were tested in an IL-12 inhibitory assay as follows: Lipopolysaccharide (LPS, Serratia marscencens) was obtained from Sigma (St. Louis, Mo.). Human recombinant IFNg was purchased from Boehringer Mannheim. (Mannheim, Germany). Human peripheral blood mononuclear cells were isolated by centrifugation using Ficall-Paque (Pharmacia Biotech, Uppsala, Sweden) and prepared in RPMI medium supplemented with 10% FCS and antibiotics in a 96-well plate with 1×10^6 cells/well. Human PBMC were primed with IFNγ (30 U/mL) for 16 h and then stimulated with […] of LPS in the presence of different concentrations of test compound. Cell-free supernatants were taken 20 h later for measurement of cytokines. Cell viability was assessed using the bioreduction of MTS [3-(4,5-dimethylthiazol-2-yl)-5-(3-carboxymethoxyphenyl)-2-(4-sulfophenyl)-2H-tetrazolium] (Promega, Madison, Wis.). Cell survival was estimated as the ratio of the absorbance in compound-treated groups versus compound-free control. Human IL-12 was assayed using ELISA kits (Endogen, Cambridge, Mass.), essentially according to the manufacturer's instructions. IL-12 inhibition can also be measured by other methods (e.g., in vivo, in vitro, animal models) of assaying for enzyme inhibition activity.
Take `COC1=CC(=O)O[C@@H](CCc2ccccc2)C1` [dihydrokawain]: the IL-12 inhibitory activity entry is given as “much higher IL-12 inhibitory activity relative to the other kavalactones; also recorded: exhibit IL-12 inhibitory activity”.
Then `COC1=CC(=O)O[C@@H](CCc2ccc3c(c2)OCO3)C1` [dihydromethysticin], with “much higher IL-12 inhibitory activity relative to the other kavalactones; also recorded: exhibit IL-12 inhibitory activity”; and `COC1=CC(=O)O[C@@H](/C=C/c2ccccc2)C1` [kawain], with “much higher IL-12 inhibitory activity relative to the other kavalactones; also recorded: exhibit IL-12 inhibitory activity”.
